# Several values for one entry are separate records, joined by “and”; a condition that tells them apart may be missing. Equal entries are not always repeated.
# Tested on: imiquimod-induced psoriasis
# Assay: Imiquimod-induced psoriasis model
# Format: in vivo, mice
# Design: Spleen Weight / Spleen Weight Ratio: unit not given here
# Settings: for Mean scores of the presence of erythema on the skin of animals at the area of induction of psoriasis / Mean scores of the presence of induration on the skin of animals at the area of induction of psoriasis / Mean scores of the presence of peeling on the skin of animals at the area of induction of psoriasis: mean ± SEM
# How it was run: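 Mice given topical imiquimod (5% cream) daily on depilated backs Days 1–14; Compound A in 5% DMSO/40% PEG-400/55% saline from Day 8, clobetasol topical as reference. Daily PASI (erythema, induration, peeling, each 0–4, summed) Days 8–15; spleen weight, open-field behaviour, serum IL-1B, IL-6, IL-17, TNF-α, IL-22, IL-23 at Day 15.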
# [1] = IMI + 1 mg/kg, D8 (before start of treatment)
# [2] = IMI + 3 mg/kg, D8 (before start of treatment)
compound,measurement,setting,value
"COCCn1cc(-c2ccccc2)c(-c2cn(C)c(=O)c3[nH]c(-c4cnn(C(F)(F)F)c4)cc23)cc1=O [Compound B, 4-(1-(2-methoxyethyl)-2-oxo-5-phenyl-1,2-dihydropyridin-4-yl)-6-methyl-2-(1-(trifluoromethyl)-1H-pyrazol-4-yl)-1,6-dihydro-7H-pyrrolo[2,3-c]pyridin-7-one]",Spleen Weight Ratio,"IMI-psoriasis model, mice, 10 mg/kg, individual animals",1026.10 and 1000.89 and 999.24 and 691.05 and 654.43 and 926.75 and 782.83 and 888.53
same,Spleen Weight Ratio,"day 15, 1, 3, 10 mg/kg",dose-dependent decrease
same,efficacy on the treatment of psoriasis,highest tested dose of 10 mg/kg,very good efficacy
same,Mean scores of the presence of erythema on the skin of animals at the area of induction of psoriasis,[1],2.1 ± 0.1
same,Mean scores of the presence of induration on the skin of animals at the area of induction of psoriasis,[1],2.5 ± 0.2
same,Mean scores of the presence of peeling on the skin of animals at the area of induction of psoriasis,[1],2.1 ± 0.1
same,Mean scores of the presence of erythema on the skin of animals at the area of induction of psoriasis,"IMI + 1 mg/kg, D9",1.8 ± 0.2
same,Mean scores of the presence of induration on the skin of animals at the area of induction of psoriasis,"IMI + 1 mg/kg, D9",2.5 ± 0.2
same,Mean scores of the presence of peeling on the skin of animals at the area of induction of psoriasis,"IMI + 1 mg/kg, D9",2.5 ± 0.3
same,Mean scores of the presence of erythema on the skin of animals at the area of induction of psoriasis,"IMI + 1 mg/kg, D10",1.8 ± 0.2
same,Mean scores of the presence of induration on the skin of animals at the area of induction of psoriasis,"IMI + 1 mg/kg, D10",2.3 ± 0.2
same,Mean scores of the presence of peeling on the skin of animals at the area of induction of psoriasis,"IMI + 1 mg/kg, D10",2.0 ± 0.2
same,Mean scores of the presence of erythema on the skin of animals at the area of induction of psoriasis,"IMI + 1 mg/kg, D11",2.3 ± 0.2
same,Mean scores of the presence of induration on the skin of animals at the area of induction of psoriasis,"IMI + 1 mg/kg, D11",2.3 ± 0.3
same,Mean scores of the presence of peeling on the skin of animals at the area of induction of psoriasis,"IMI + 1 mg/kg, D11",2.0 ± 0.1
same,Mean scores of the presence of erythema on the skin of animals at the area of induction of psoriasis,"IMI + 1 mg/kg, D12",1.8 ± 0.2
same,Mean scores of the presence of induration on the skin of animals at the area of induction of psoriasis,"IMI + 1 mg/kg, D12",2.0 ± 0.0
same,Mean scores of the presence of peeling on the skin of animals at the area of induction of psoriasis,"IMI + 1 mg/kg, D12",1.9 ± 0.1
same,Mean scores of the presence of erythema on the skin of animals at the area of induction of psoriasis,"IMI + 1 mg/kg, D13",1.5 ± 0.3
same,Mean scores of the presence of induration on the skin of animals at the area of induction of psoriasis,"IMI + 1 mg/kg, D13",2.0 ± 0.0
same,Mean scores of the presence of peeling on the skin of animals at the area of induction of psoriasis,"IMI + 1 mg/kg, D13",2.0 ± 0.3
same,Mean scores of the presence of erythema on the skin of animals at the area of induction of psoriasis,"IMI + 1 mg/kg, D14",1.8 ± 0.3
same,Mean scores of the presence of induration on the skin of animals at the area of induction of psoriasis,"IMI + 1 mg/kg, D14",2.0 ± 0.0
same,Mean scores of the presence of peeling on the skin of animals at the area of induction of psoriasis,"IMI + 1 mg/kg, D14",1.9 ± 0.2
same,Mean scores of the presence of erythema on the skin of animals at the area of induction of psoriasis,"IMI + 1 mg/kg, D15",1.5 ± 0.2
same,Mean scores of the presence of induration on the skin of animals at the area of induction of psoriasis,"IMI + 1 mg/kg, D15",1.9 ± 0.1
same,Mean scores of the presence of peeling on the skin of animals at the area of induction of psoriasis,"IMI + 1 mg/kg, D15",1.8 ± 0.3
same,Mean scores of the presence of erythema on the skin of animals at the area of induction of psoriasis,[2],2.4 ± 0.2
same,Mean scores of the presence of induration on the skin of animals at the area of induction of psoriasis,[2],2.6 ± 0.2
same,Mean scores of the presence of peeling on the skin of animals at the area of induction of psoriasis,[2],2.6 ± 0.3
same,Mean scores of the presence of erythema on the skin of animals at the area of induction of psoriasis,"IMI + 3 mg/kg, D9",1.9 ± 0.3
same,Mean scores of the presence of induration on the skin of animals at the area of induction of psoriasis,"IMI + 3 mg/kg, D9",2.0 ± 0.0
same,Mean scores of the presence of peeling on the skin of animals at the area of induction of psoriasis,"IMI + 3 mg/kg, D9",2.1 ± 0.0
same,Mean scores of the presence of erythema on the skin of animals at the area of induction of psoriasis,"IMI + 3 mg/kg, D10",1.6 ± 0.2
same,Mean scores of the presence of induration on the skin of animals at the area of induction of psoriasis,"IMI + 3 mg/kg, D10",2.1 ± 0.1
same,Mean scores of the presence of peeling on the skin of animals at the area of induction of psoriasis,"IMI + 3 mg/kg, D10",2.0 ± 0.2
same,Mean scores of the presence of erythema on the skin of animals at the area of induction of psoriasis,"IMI + 3 mg/kg, D11",1.9 ± 0.2
same,Mean scores of the presence of induration on the skin of animals at the area of induction of psoriasis,"IMI + 3 mg/kg, D11",1.7 ± 0.2
same,Mean scores of the presence of peeling on the skin of animals at the area of induction of psoriasis,"IMI + 3 mg/kg, D11",1.9 ± 0.1
same,Mean scores of the presence of erythema on the skin of animals at the area of induction of psoriasis,"IMI + 3 mg/kg, D12",1.9 ± 0.1
same,Mean scores of the presence of induration on the skin of animals at the area of induction of psoriasis,"IMI + 3 mg/kg, D12",1.9 ± 0.1
same,Mean scores of the presence of peeling on the skin of animals at the area of induction of psoriasis,"IMI + 3 mg/kg, D12",1.6 ± 0.2
same,Mean scores of the presence of erythema on the skin of animals at the area of induction of psoriasis,"IMI + 3 mg/kg, D13",1.5 ± 0.2
same,Mean scores of the presence of induration on the skin of animals at the area of induction of psoriasis,"IMI + 3 mg/kg, D13",1.9 ± 0.1
same,Mean scores of the presence of peeling on the skin of animals at the area of induction of psoriasis,"IMI + 3 mg/kg, D13",1.6 ± 0.2
same,Mean scores of the presence of erythema on the skin of animals at the area of induction of psoriasis,"IMI + 3 mg/kg, D14",1.3 ± 0.2
same,Mean scores of the presence of induration on the skin of animals at the area of induction of psoriasis,"IMI + 3 mg/kg, D14",1.9 ± 0.1
same,Mean scores of the presence of peeling on the skin of animals at the area of induction of psoriasis,"IMI + 3 mg/kg, D14",1.5 ± 0.1
same,Mean scores of the presence of erythema on the skin of animals at the area of induction of psoriasis,"IMI + 3 mg/kg, D15",0.9 ± 0.2
same,Mean scores of the presence of induration on the skin of animals at the area of induction of psoriasis,"IMI + 3 mg/kg, D15",1.4 ± 0.2
